{
  "source": "patent US20240180890A1",
  "about": "“VACCINE ADJUVANT” (Celleron Therapeutics Limited, priority 2021, published 2024)",
  "key": {"[1]": {"experiment": "physchem", "settings": "25 °C, aqueous buffer"}, "[2]": {"system": "HDAC Class II", "experiment": "HDAC Class II inhibition", "type": "biochemical", "settings": "no activity against HDAC Class II"}, "[3]": {"system": "peptide-specific CD8 T cells", "experiment": "Immunogenicity experiment with CXD101 and peptide vaccine", "type": "in vivo, C57BL/6 mice", "description": "C57BL/6 mice were treated with orally administrated CXD101 at 10 mg/kg for 14 days (5 days on/2 days off) and intravenous D8V and 18V peptides vaccination (days 1 and 7) with respect to vehicle only control; n=5 per group; • B) 18V-peptide specific CD8 positive T cells with tetramers (i) and general T cell activation (CD8+ CD44+ CD62L− tetramer positive T cells) measurements by flow cytometry; n=5; • C) Representative examples of immunohistochemical staining of H3AcK9 in lungs (i) collected from C57BL/6 mice at 14 days treated with 25 mg/kg CXD101 and non-treated control. Original magnification: 20×, scale bar, 50 μm; and 63×; scale bar, 16 μm. n=3; (ii) results were quantified by ImageJ Fiji software and normalised optical density was presented as a mean+/−SD. […]\nTwenty C57BL/6 female mice (5 mice per group: control; CXD101 treated; peptide vaccinated; CXD101/peptide vaccinated) where 10 mice were vaccinated intravenously with 30 μg of peptides encoding CD8 T cell epitopes from the beta-galactosidase gene, βgale96-103 (DAPIYTNV; D8V), the βgal497-504 (ICPMYARV; 18V) (Genscript) with 30 μg polylC (InVivogen) and 25 μg anti-CD40 (2bScientific). […] Mice were bled at day 6 and 13 post prime and the levels of peptide-specific CD8 T cells measured by detection with tetramers followed by flow cytometry."}},
  "data": [
    {"smiles": "Cc1nn(C)cc1CN1CCC(c2ccc(C(=O)Nc3ccccc3N)cc2)CC1", "note": "[CXD101/zabinostat, N-(2-aminophenyl)-4-(1-[(1,3-dimethyl-1H-pyrazol-4-yl)methyl]piperidin-4yl)benzamide]", "values": [
      {"measurement": "solubility", "setting": "[1]", "value": "≥ 500", "unit": "µg/mL"},
      {"measurement": "IC50", "setting": "[2]", "value": "≥ 2.5", "unit": "µM"},
      {"measurement": "immunogenicity against a peptide-based vaccine", "setting": "[3]; C57BL/6 mice, oral CXD101, intravenous D8V and 18V peptides vaccination, tetramers and flow cytometry (FIG. 7)", "value": "induces immunogenicity against a peptide-based vaccine"},
      {"measurement": "immune response to an immunogenic protein", "setting": "[3]; normal healthy cells and animals", "value": "potentiates the immune response"}
    ]}
  ]
}
